Our source for the pest or weed control values is US9210927B2, “Pesticidal compositions and processes related thereto” (Dow AgroSciences LLC, priority 2013, dated 2015).

Holding throughout (format): in vivo
For assay [1], the system named is GPA (Myzus persicae). As to the kind of experiment: Bioassays on Green Peach Aphid (GPA), foliar spray on cabbage seedlings. To be noted: 72 h, corrected % control (Abbott), 200 ppm spray on cabbage seedlings, three days, read-out: GPA Rating. As to the method:
Bioassays on Green Peach Aphid (“GPA”) (Myzus persicae) Certain molecules disclosed in this document were tested against GPA using procedures described in the following example. In the reporting of the results, the “GPA Rating Table” was used (See Table Section). Cabbage seedlings grown in 3-inch pots, with 2-3 small (3-5 cm) true leaves, were used as test substrate. The seedlings were infested with 20-50 GPA (wingless adult and nymph stages) one day prior to chemical application. Four pots with individual seedlings were used for each treatment. Test compounds (2 mg) were dissolved in 2 mL of acetone/MeOH (1:1) solvent, forming stock solutions of 1000 ppm test compound. The stock solutions were diluted 5× with 0.025% Tween 20 in H2O to obtain the solution at 200 ppm test compound. A hand-held aspirator-type sprayer was used for spraying a solution to both sides of […] leaves until runoff. Reference plants (solvent check) were sprayed with the diluent only containing 20% by volume of acetone/MeOH (1:1) solvent. Treated plants were held in a holding room for three days at approximately 25° C. and ambient relative humidity (RH) prior to grading. Evaluation was conducted by counting the number of live aphids per plant under a microscope. Percent Control was measured by using Abbott's correction formula (W. S. Abbott, “A Method of Computing the Effectiveness of an Insecticide” J. Econ. Entomol. 18 (1925), pp. 265-267) as follows. Corrected % Control=100*(X−Y)/X • where • X=No. of live aphids on solvent check plants and • Y=No. of live aphids on treated plants The results are indicated in the table entitled “Table 3: Assay Results” (See Table Section).

Assay [2] deals with BAW (Spodoptera exigua). In words: Bioassays on Beet Armyworm (BAW), 128-well diet tray assay. To be noted: Spodoptera exigua, 168 h, read-out: BAW Rating. In a few lines:
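Diet surface dosed at 50 μg/cm^2 (acetone-water 90:10 vehicle), dried, then infested with second-instar larvae, one to five per well. After five to seven days at 25° C. under 14:10 light-dark, mortality per well was scored and averaged over eight wells.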

For assay [3], the system named is CEW (Helicoverpa zea). As to the kind of experiment: Bioassays on Corn Earworm (CEW), 128-well diet tray assay. To be noted: Helicoverpa zea, 168 h; percent mortality, second instar larvae, 50 μg/cm^2 on artificial diet, five to seven days, 25° C.; read-out: CEW Rating. In a few lines: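 Percent larval mortality, averaged across eight wells, read after five to seven days at 25 °C under 14:10 light-dark. Each well held one to five second-instar larvae on diet surface-dosed at 50 μg/cm^2 (compound applied in acetone-water 90:10, then dried).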

For the compound `CCc1cc(/C=C/C(c2cc(Cl)c(F)c(Cl)c2)C(F)(F)F)ccc1C(=O)NCC(=O)NCC(F)(F)F` (stereo not drawn) [AC80], the pest or weed control at 200 ppm in assay [1] lay in the range of 0 to 80%. The pest or weed control at 50 µg/cm2 in assay [2] and in assay [3] was 50 to 100% throughout.

As to `O=C(NC1CS(=O)(=O)C1)c1ccc(/C=C/C(c2cc(Cl)cc(Cl)c2)C(F)(F)F)cc1F` (stereo not drawn) [AC83, (E)-4-(3-(3,5-Dichlorophenyl)-4,4,4-trifluorobut-1-en-1-yl)-N-(1,1-dioxidothietan-3-yl)-2-fluorobenzamide], in assay [1], the pest or weed control at 200 ppm was in the range of 0 to 80%. For the same compound, the pest or weed control at 50 µg/cm2 in assay [2] and in assay [3] was 50 to 100% in each case.

Take `COc1cc(/C=C/C(c2cc(Cl)c(F)c(Cl)c2)C(F)(F)F)ccc1C(=O)NC1CS(=O)(=O)C1` (stereo not drawn) [AC85]: the pest or weed control at 200 ppm in assay [1] lay in the range of 0 to 80%. The pest or weed control at 50 µg/cm2 in assay [2] and in assay [3] was 50 to 100% throughout.

Consider `O=C(NC1C[S+]([O-])C1)c1ccc(/C=C/C(c2cc(Cl)c(F)c(Cl)c2)C(F)(F)F)cc1F` (stereo not drawn) [AC87], for which, in assay [1], the pest or weed control at 200 ppm lay in the range of 0 to 80%. Moreover, the pest or weed control at 50 µg/cm2 in assay [2] and in assay [3] was 50 to 100% each time.

In the case of `Cc1cc(/C=C/C(c2cc(Cl)cc(Cl)c2)C(F)(F)F)ccc1C(=O)NCc1nnc(C2CC2)o1` (stereo not drawn) [AC89, (E)-N-((5-Cyclopropyl-1,3,4-oxadiazol-2-yl)methyl)-4-(3-(3,5-dichlorophenyl)-4,4,4-trifluorobut-1-en-1-yl)-2-methylbenzamide], in assay [1], the pest or weed control at 200 ppm is 0 to 80%. Further, the pest or weed control at 50 µg/cm2 in assay [2] and in assay [3] was 50 to 100% each time.

In the case of `O=C(NC1CCN(C(=O)CC(F)(F)F)CC1)c1ccc(/C=C/C(c2cc(Cl)c(Cl)c(Cl)c2)C(F)(F)F)cc1Br` (stereo not drawn) [AC104, (E)-2-Bromo-4-(4,4,4-trifluoro-3-(3,4,5-trichlorophenyl)but-1-en-1-yl)-N-(1-(3,3,3-trifluoropropanoyl)piperidin-4-yl)benzamide], the pest or weed control at 200 ppm in assay [1] was 0 to 80%. Further, the pest or weed control at 50 µg/cm2 in assay [2] and in assay [3] was 50 to 100% in each case.

Regarding `CN1CCC(NC(=O)c2ccc(/C=C/C(c3cc(Cl)c(Cl)c(Cl)c3)C(F)(F)F)cc2Br)CC1` (stereo not drawn) [AC106, (E)-2-Bromo-N-(1-methylpiperidin-4-yl)-4-(4,4,4-trifluoro-3-(3,4,5-trichlorophenyl)but-1-en-1-yl)benzamide], the pest or weed control at 200 ppm in assay [1] is 0 to 80%. The pest or weed control at 50 µg/cm2 in assay [2] and in assay [3] was 50 to 100% in each case.

For the compound `O=C(CC(F)(F)F)NC1CCCc2cc(/C=C/C(c3cc(Cl)c(Cl)c(Cl)c3)C(F)(F)F)ccc21` (stereo not drawn) [BC5], the pest or weed control at 200 ppm in assay [1] fell in the range of 0 to 80%. For the same compound, the pest or weed control at 50 µg/cm2 in assay [2] and in assay [3] was 50 to 100% in each case.

Turning to `O=C(CC(F)(F)F)NC1CCc2cc(/C=C/C(c3cc(Cl)c(F)c(Cl)c3)C(F)(F)F)ccc21` (stereo not drawn) [BC8], the pest or weed control at 200 ppm in assay [1] was in the range of 0 to 80%. Besides, the pest or weed control at 50 µg/cm2 in assay [2] and in assay [3] was 50 to 100% each time.

For the compound `Fc1c(Cl)cc(C(/C=C/c2ccc3c(c2)CCC3NCCC(F)(F)F)C(F)(F)F)cc1Cl` (stereo not drawn) [BC10, (E)-5-(3-(3,5-Dichloro-4-fluorophenyl)-4,4,4-trifluorobut-1-en-1-yl)-N-(3,3,3-trifluoropropyl)-2,3-dihydro-1H-inden-1-amine], the pest or weed control at 200 ppm in assay [1] was 0 to 80%. For the same compound, the pest or weed control at 50 µg/cm2 in assay [2] and in assay [3] was 50 to 100% throughout.

`O=C(NCc1ccc(/C=C/C(c2cc(Cl)cc(Cl)c2)C(F)(F)F)cc1)C1CC1` (stereo not drawn) [CC2]: the pest or weed control at 200 ppm in assay [1] lay within 0 to 80%. Further, the pest or weed control at 50 µg/cm2 in assay [2] and in assay [3] was 50 to 100% each time.

For the compound `CCC(=O)NCc1ccc(/C=C/C(c2cc(Cl)cc(Cl)c2)C(F)(F)F)cc1` (stereo not drawn) [CC4], the pest or weed control at 200 ppm in assay [1] was 0 to 80%. Besides, the pest or weed control at 50 µg/cm2 in assay [2] was 50 to 100%; in assay [3], 0 to 50%.

Regarding `O=C(NCc1ccc(/C=C/C(c2cc(Cl)c(Cl)c(Cl)c2)C(F)(F)F)cc1)C1CC1` (stereo not drawn) [CC5], the pest or weed control at 200 ppm in assay [1] lay within 0 to 80%. The pest or weed control at 50 µg/cm2 in assay [2] and in assay [3] was 50 to 100% throughout.

On to `O=C(CC(F)(F)F)NCc1ccc(/C=C/C(c2cc(Cl)c(Cl)c(Cl)c2)C(F)(F)F)cc1` (stereo not drawn) [CC6], for which the pest or weed control at 200 ppm in assay [1] lay within 0 to 80%. In addition, the pest or weed control at 50 µg/cm2 in assay [2] and in assay [3] was 50 to 100% in each case.

As to `CC(=O)NCc1ccc(/C=C/C(c2cc(Cl)cc(Cl)c2)C(F)(F)F)cc1Cl` (stereo not drawn) [CC7, (E)-N-(2-Chloro-4-(3-(3,5-dichlorophenyl)-4,4,4-trifluorobut-1-en-1-yl)benzyl)acetamide], in assay [1], the pest or weed control at 200 ppm is 0 to 80%. Also, the pest or weed control at 50 µg/cm2 in assay [2] and in assay [3] was 50 to 100% each time.

Consider `O=C(CC(F)(F)F)NCc1ccc(/C=C/C(c2cc(Cl)cc(Cl)c2)C(F)(F)F)cc1Cl` (stereo not drawn) [CC9], for which the pest or weed control at 200 ppm in assay [1] was in the range of 0 to 80%. The pest or weed control at 50 µg/cm2 in assay [2] and in assay [3] was 50 to 100% in each case.

Take `O=C(NCc1ccc(/C=C/C(c2cc(Cl)c(Cl)c(Cl)c2)C(F)(F)F)cc1Cl)C1CC1` (stereo not drawn) [CC11]: the pest or weed control at 200 ppm in assay [1] is 0 to 80%. Moreover, the pest or weed control at 50 µg/cm2 in assay [2] and in assay [3] was 50 to 100% in each case.

As for `O=C(NCc1ccc(/C=C/C(c2cc(Cl)c(F)c(Cl)c2)C(F)(F)F)cc1Cl)C1CC1` (stereo not drawn) [CC15], in assay [1], the pest or weed control at 200 ppm fell in the range of 0 to 80%. The pest or weed control at 50 µg/cm2 in assay [2] and in assay [3] was 50 to 100% each time.

`O=C(NCc1ccc(/C=C/C(c2ccc(Cl)c(Cl)c2)C(F)(F)F)cc1Cl)C1CC1` (stereo not drawn) [CC17]: the pest or weed control at 200 ppm in assay [1] is 0 to 80%. The pest or weed control at 50 µg/cm2 in assay [2] and in assay [3] was 50 to 100% in each case.

Take `O=C(CC(F)(F)F)NCc1ccc(/C=C/C(c2ccc(Cl)c(Cl)c2)C(F)(F)F)cc1Cl` (stereo not drawn) [CC18]: in assay [1], the pest or weed control at 200 ppm was 0 to 80%. Further, the pest or weed control at 50 µg/cm2 in assay [2] and in assay [3] was 50 to 100% throughout.

As for `CSCCC(=O)NCc1ccc(/C=C/C(c2cc(Cl)c(Cl)c(Cl)c2)C(F)(F)F)cc1Cl` (stereo not drawn) [CC19], in assay [1], the pest or weed control at 200 ppm was 0 to 80%. In addition, the pest or weed control at 50 µg/cm2 in assay [2] and in assay [3] was 50 to 100% throughout.

Regarding `O=C(NCc1ccc(/C=C/C(c2cc(Cl)c(Cl)c(Cl)c2)C(F)(F)F)cc1C(F)(F)F)C1CC1` (stereo not drawn) [CC22], the pest or weed control at 200 ppm in assay [1] was in the range of 0 to 80%. The pest or weed control at 50 µg/cm2 in assay [2] and in assay [3] was 50 to 100% in each case.

For the compound `O=C(NCc1ccc(/C=C/C(c2cc(Cl)c(Cl)c(Cl)c2)C(F)(F)F)cc1C(F)(F)F)c1cccnc1` (stereo not drawn) [CC23], in assay [1], the pest or weed control at 200 ppm fell in the range of 0 to 80%. Moreover, the pest or weed control at 50 µg/cm2 in assay [2] and in assay [3] was 50 to 100% throughout.

With `O=C(CC(F)(F)F)NCc1ccc(/C=C/C(c2cc(Cl)c(Cl)c(Cl)c2)C(F)(F)F)cc1Br` (stereo not drawn) [CC25], in assay [1], the pest or weed control at 200 ppm was 0 to 80%. Moreover, the pest or weed control at 50 µg/cm2 in assay [2] and in assay [3] was 50 to 100% throughout.

On to `O=C(C1CC1)N(Cc1ccccn1)Cc1ccc(/C=C/C(c2cc(Cl)c(Cl)c(Cl)c2)C(F)(F)F)cc1C(F)(F)F` (stereo not drawn) [CC29, (E)-N-(Pyridin-2-ylmethyl)-N-(4-(4,4,4-trifluoro-3-(3,4,5-trichlorophenyl)but-1-enyl)-2-(trifluoromethyl)benzyl)cyclopropanecarboxamide], for which, in assay [1], the pest or weed control at 200 ppm lay within 0 to 80%. Besides, the pest or weed control at 50 µg/cm2 in assay [2] and in assay [3] was 50 to 100% each time.

Consider `CCNC(=O)NCc1ccc(/C=C/C(c2cc(Cl)c(Cl)c(Cl)c2)C(F)(F)F)cc1C(F)(F)F` (stereo not drawn) [CC32], for which the pest or weed control at 200 ppm in assay [1] was 0 to 80%. The pest or weed control at 50 µg/cm2 in assay [2] and in assay [3] was 50 to 100% in each case.

Regarding `CCNC(=O)NCc1ccc(/C=C/C(c2cc(Cl)c(Cl)c(Cl)c2)C(F)(F)F)cc1Br` (stereo not drawn) [CC33], the pest or weed control at 200 ppm in assay [1] was in the range of 0 to 80%. Besides, the pest or weed control at 50 µg/cm2 in assay [2] and in assay [3] was 50 to 100% in each case.

For `O=C(NCc1ccc(/C=C/C(c2cc(Cl)c(Cl)c(Cl)c2)C(F)(F)F)cc1Cl)N1CCOCC1` (stereo not drawn) [CC34], the pest or weed control at 200 ppm in assay [1] was 0 to 80%. Besides, the pest or weed control at 50 µg/cm2 in assay [2] and in assay [3] was 50 to 100% each time.
